Test results taken from patent US20180215727A1, “LYSYL OXIDASE-LIKE 2 INHIBITORS AND USES THEREOF” (PharmAkea, Inc., priority 2015, published 2018).
Structures can show the parent of a compound that is named as a salt.

Molecular target: T1, human LOXL2 (Homo sapiens, UniProt Q9Y4K0)
T1 construct: expressed in transfected cells; secreted protein in 10-20x concentrated conditioned media
T1 sequence (Q9Y4K0 26-774): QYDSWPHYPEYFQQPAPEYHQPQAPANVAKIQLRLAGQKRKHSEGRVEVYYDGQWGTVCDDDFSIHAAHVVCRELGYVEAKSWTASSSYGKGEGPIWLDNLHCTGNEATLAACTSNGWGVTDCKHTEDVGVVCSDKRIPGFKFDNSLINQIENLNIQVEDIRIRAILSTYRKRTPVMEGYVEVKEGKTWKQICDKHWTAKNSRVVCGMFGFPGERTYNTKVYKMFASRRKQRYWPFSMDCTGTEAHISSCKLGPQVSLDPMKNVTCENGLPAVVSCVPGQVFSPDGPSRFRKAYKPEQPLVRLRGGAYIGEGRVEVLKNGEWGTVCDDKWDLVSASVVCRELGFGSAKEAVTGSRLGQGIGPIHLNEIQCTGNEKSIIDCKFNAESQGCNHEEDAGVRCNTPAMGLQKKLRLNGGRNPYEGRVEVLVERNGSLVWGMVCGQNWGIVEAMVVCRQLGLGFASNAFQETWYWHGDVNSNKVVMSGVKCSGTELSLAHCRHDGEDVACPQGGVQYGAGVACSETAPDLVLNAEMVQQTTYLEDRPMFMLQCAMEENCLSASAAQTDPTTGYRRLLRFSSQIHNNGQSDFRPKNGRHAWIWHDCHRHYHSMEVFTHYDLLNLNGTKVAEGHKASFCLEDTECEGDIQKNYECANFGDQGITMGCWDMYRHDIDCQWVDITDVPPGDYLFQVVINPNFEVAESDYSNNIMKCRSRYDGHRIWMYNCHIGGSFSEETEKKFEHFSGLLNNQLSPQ
Assay: Human LOXL2 Amine Oxidase Activity Assay (Amplex Red fluorescence)
Format: biochemical
Details: concentrated conditioned media from CHO cells stably expressing human LOXL2, test compound incubated 2 h at 37° C., pH8, DAP substrate
Procedure: Example B-1: Human LOXL2 Amine Oxidase Activity Assay
LOXL2 amine oxidase activity is evaluated by measuring Amplex Red fluorescence using 10-20× concentrated conditioned media from CHO cells stably expressing human LOXL2. To assay for amine oxidase activity, 10 μL of the concentrated conditioned media is incubated with 2 μL of test compound in DMSO and 73 μL Assay Buffer (50 mM Borate Buffer, pH8) for 2 h at 37° C. After the 2 h incubation, 5 μl of 10 mM 1,5-Diaminopentane (DAP) diluted in Assay Buffer and 10 μl of Amplex Red Mix (8.5 μl Assay Buffer+0.5 μl of 10 mM Amplex Red+1 μl of 500 U/ml Horseradish Peroxidase) are added and the plate mixed and immediately placed on the FlexStaion for fluorescence measurements. Fluorescence is read in kinetic mode every 2 min for 1 hour at excitation=544 and emission=590. The amine oxidase activity is calculated from the slope of the linear portion of the curve.

SMILES	IC50 [nM]
CN(C)C(=O)c1ccc2oc(CN)cc(=O)c2c1 [Compound 1-18, 2-(Aminomethyl)-N,N-dimethyl-4-oxo-4H-chromene-6-carboxamide hydrochloride]	> 1000
NCc1cc(=O)c2ccc(Br)cc2o1 [Compound 1-2, 2-(Aminomethyl)-7-bromo-4H-chromen-4-one hydrochloride]	< 300
NCc1cc(=O)c2cc(-n3cccn3)ccc2o1 [Compound 1-10, 2-(Aminomethyl)-6-(1H-pyrazol-1-yl)-4H-chromen-4-one hydrochloride]	< 300
CC(C)COc1ccc2c(=O)cc(CN)oc2c1 [Compound 1-44, 2-(Aminomethyl)-7-isobutoxy-4H-chromen-4-one hydrochloride]	< 300
NCc1cc(=O)c2cc(-c3cn(-c4ccccc4)nn3)ccc2o1 [Compound 1-14, 2-(Aminomethyl)-6-(1-phenyl-1H-1,2,3-triazol-4-yl)-4H-chromen-4-one hydrochloride]	< 300
Cn1cc(-c2ccc3oc(CN)cc(=O)c3c2)nn1 [Compound 1-13, 2-(Aminomethyl)-6-(1-methyl-1H-1,2,3-triazol-4-yl)-4H-chromen-4-one hydrochloride]	< 300
NCc1cc(=O)c2cc(-c3cn(Cc4ccccc4)nn3)ccc2o1 [Compound 1-15, 2-(Aminomethyl)-6-(1-benzyl-1H-1,2,3-triazol-4-yl)-4H-chromen-4-one hydrochloride]	< 300
NCc1cc(=O)c2cccc(OCCOc3ccccc3)c2o1 [Compound 1-56, 2-(Aminomethyl)-8-(2-phenoxyethoxy)-4H-chromen-4-one hydrochloride]	> 1000
NCc1cc(=O)c2ccc(Oc3ccccc3)cc2o1 [Compound 1-68, 2-(Aminomethyl)-7-phenoxy-4H-chromen-4-one hydrochloride]	< 300
NCc1cc(=O)c2cc(C(=O)N3CC[C@@H](N)C3)ccc2o1 [Compound 1-23, (R)-2-(Aminomethyl)-6-(3-aminopyrrolidine-1-carbonyl)-4H-chromen-4-one dihydrochloride]	300 to 1000
CC(C)(O)C#Cc1ccc2oc(CN)cc(=O)c2c1 [Compound 1-4, 2-(Aminomethyl)-6-(3-hydroxy-3-methylbut-1-yn-1-yl)-4H-chromen-4-one hydrochloride]	< 300
NCc1cc(=O)c2ccc(OCCOc3ccccc3)cc2o1 [Compound 1-46, 2-(Aminomethyl)-7-(2-phenoxyethoxy)-4H-chromen-4-one hydrochloride]	< 300
NCc1cc(=O)c2cc(C(=O)N3CCCCC3)ccc2o1 [Compound 1-19, 2-(Aminomethyl)-6-(piperidine-1-carbonyl)-4H-chromen-4-one hydrochloride]	300 to 1000
NCc1cc(=O)c2ccc(-n3cccn3)cc2o1 [Compound 1-11, 2-(Aminomethyl)-7-(1H-pyrazol-1-yl)-4H-chromen-4-one hydrochloride]	< 300
NCc1cc(=O)c2cc(-c3ccccn3)ccc2o1 [Compound 1-7, 2-(Aminomethyl)-6-(pyridin-2-yl)-4H-chromen-4-one hydrochloride]	< 300
CN(C)C(=O)Cn1cc(-c2ccc3oc(CN)cc(=O)c3c2)nn1 [Compound 1-17, 2-(4-(2-(Aminomethyl)-4-oxo-4H-chromen-6-yl)-1H-1,2,3-triazol-1-yl)-N,N-dimethylacetamide hydrochloride]	< 300

Results, then the compound that gave them:

IC50 [nM]	SMILES
< 300	COc1ccc2oc(CN)cc(=O)c2c1 [Compound 1-27, 2-(Aminomethyl)-6-methoxy-4H-chromen-4-one hydrochloride]
< 300	COc1ccc(COc2ccc3c(=O)cc(CN)oc3c2)cc1 [Compound 1-64, 2-(Aminomethyl)-7-((4-methoxybenzyl)oxy)-4H-chromen-4-one]
< 300	NCc1cc(=O)c2ccc(OCc3cn(-c4ccccc4)nn3)cc2o1 [Compound 1-47, 2-(Aminomethyl)-7-((1-phenyl-1H-1,2,3-triazol-4-yl)methoxy)-4H-chromen-4-one hydrochloride]
> 1000	C#Cc1cccc2c(=O)cc(CN)oc12 [Compound 1-51, 2-(Aminomethyl)-8-ethynyl-4H-chromen-4-one hydrochloride]
300 to 1000	CS(=O)(=O)CCNC(=O)c1ccc2oc(CN)cc(=O)c2c1 [Compound 1-26, 2-(Aminomethyl)-N-(2-(methylsulfonyl)ethyl)-4-oxo-4H-chromene-6-carboxamide hydrochloride]
300 to 1000	NCc1cc(=O)c2cc(C(=O)N3C[C@H](O)[C@@H](F)C3)ccc2o1 [Compound 1-60, 2-(Aminomethyl)-6-((3S,4S)-3-fluoro-4-hydroxypyrrolidine-1-carbonyl)-4H-chromen-4-one hydrochloride]
< 300	NCc1cc(=O)c2ccc(-c3cn(-c4ccccc4)nn3)cc2o1 [Compound 1-33, 2-(Aminomethyl)-7-(1-phenyl-1H-1,2,3-triazol-4-yl)-4H-chromen-4-one hydrochloride]
< 300	NCc1cc(=O)c2ccc(Nc3cnn(-c4ccccc4)c3)cc2o1 [Compound 1-70, 2-(Aminomethyl)-7-((1-phenyl-1H-pyrazol-4-yl)amino)-4H-chromen-4-one hydrochloride]
< 300	NCc1cc(=O)c2ccc(OCc3ccccc3)cc2o1 [Compound 1-29, 2-(Aminomethyl)-7-(benzyloxy)-4H-chromen-4-one hydrochloride]
300 to 1000	NCc1cc(=O)c2cc(C(=O)N3C[C@@H](O)[C@H](F)C3)ccc2o1 (racemic) [Compound 1-25, Racemic-trans-2-(aminomethyl)-6-(3-fluoro-4-hydroxypyrrolidine-1-carbonyl)-4H-chromen-4-one hydrochloride]
300 to 1000	NCc1cc(=O)c2cccc(OCCc3ccccc3)c2o1 [Compound 1-55, 2-(Aminomethyl)-8-phenethoxy-4H-chromen-4-one hydrochloride]
< 300	NCc1cc(=O)c2ccc(OCC#Cc3ccccc3)cc2o1 [Compound 1-63, 2-(Aminomethyl)-7-((3-phenylprop-2-yn-1-yl)oxy)-4H-chromen-4-one hydrochloride]
< 300	NCc1cc(=O)c2ccc(N3CCCc4ccccc43)cc2o1 [Compound 1-42, 2-(Aminomethyl)-7-(3,4-dihydroquinolin-1(2H)-yl)-4H-chromen-4-one hydrochloride]
300 to 1000	NCc1cc(=O)c2cccc(O)c2o1 [Compound 1-52, 2-(Aminomethyl)-8-hydroxy-4H-chromen-4-one hydrochloride]
< 300	NCc1cc(=O)c2ccc(OCc3cc4ccccc4s3)cc2o1 [Compound 1-66, 2-(Aminomethyl)-7-(benzo[b]thiophen-2-ylmethoxy)-4H-chromen-4-one hydrochloride]
300 to 1000	C#Cc1ccc2c(=O)cc(CN)oc2c1 [Compound 1-31, 2-(aminomethyl)-7-ethynyl-4H-chromen-4-one hydrochloride]
> 1000	COC(=O)[C@H]1CCN(C(=O)c2ccc3oc(CN)cc(=O)c3c2)C1 [Compound 1-36, Methyl (S)-1-(2-(aminomethyl)-4-oxo-4H-chromene-6-carbonyl)pyrrolidine-3-carboxylate hydrochloride]
< 300	NCc1cc(=O)c2cc(OCc3ccccc3)ccc2o1 [Compound 1-30, 2-(Aminomethyl)-6-(benzyloxy)-4H-chromen-4-one hydrochloride]
